Measurements reported in patent US8518952B2, “6 substituted 2-heterocyclylamino pyrazine compounds as CHK-1 inhibitors” (Pfizer Inc., priority 2008, dated 2013).

Tests used:
Mia Paca-2 cells = experiment: Histone H3 (Ser10) phosphorylation ELISA, abrogation of camptothecin-induced G2 arrest (CHK-1 cellular assay); type: cell-based; settings: camptothecin 8 hrs, then compound with nocodozole 16 hours
Protocol: The Histone H3 phosphorylation ELISA assay detects cells entering mitosis and represents the primary in vitro cell-based assay used to measure the cellular potency of compounds in abrogating the G2 check point induced by DNA damage in HeLa cells or MiaPaCa cells. The candidate substances were assayed for potency in their ability to inhibit camptothecin-induced G2 arrest, as measured by an increase in Histone H3 phosphorylation on Ser10, a marker of entry into mitosis.
The PathScan Phospho-Histone H3 (Ser10) Sandwich ELISA kit was used (Cell Signaling, #7155) and the assay was performed according to manufacturer recommendations. Tissue culture plates were seeded with HeLa cells or MiaPaCa Cells and allowed to attach overnight. The cells were then treated with camptothecin to induce DNA damage for 8 hrs. Candidate substances or diluent were then added in the presence of nocodozole for 16 hours. Cells were then lysed with buffer from Assay Designs (#80-1114) supplemented with protease inhibitors and frozen overnight. The fresh whole cell lysates were then thawed and added to the ELISA plate with shaking for 3 hours. Between all subsequent steps plates were washed 4 times with PBST. Biotinylated phospho Histone H3 (ser10) detection antibody was added for 1 hour, followed by addition of horseradish peroxidase-linked streptavidin secondary antibody for 1 hour. Color development of the antibody was performed with addition of TMB substrate and incubation for 2 minutes on a plate shaker. Stop solution was added and plates were read with absorbance at 450 nm on a spectrophotometer. EC50 values were calculated by sigmoid curve fitting using a four-parameter analysis.
Under the “Ki” column, data entries in the format of “%” are percent inhibition data where no Ki data is available. Data entry under the “EC50” column with an * are data obtained using Mia Paca-2 cells rather than HeLa cells. Data is not available where noted as n/a.

CHK1 (kinase domain) = molecular target: T1, CHK1 (kinase domain) (Homo sapiens, UniProt O14757); experiment: CHK1 Ki determination, spectrophotometric coupled (pyruvate kinase/lactate dehydrogenase) assay; type: biochemical; settings: CHK-1 kinase domain; for Ki: 150 uM ATP, 125 uM Syntide 2; for percent inhibition (where no Ki data is available): inhibitor concentration not given
T1 construct: a solution containing 1 nM of CHK1 (kinase domain)
T1 sequence (O14757 9-265 limits assumed): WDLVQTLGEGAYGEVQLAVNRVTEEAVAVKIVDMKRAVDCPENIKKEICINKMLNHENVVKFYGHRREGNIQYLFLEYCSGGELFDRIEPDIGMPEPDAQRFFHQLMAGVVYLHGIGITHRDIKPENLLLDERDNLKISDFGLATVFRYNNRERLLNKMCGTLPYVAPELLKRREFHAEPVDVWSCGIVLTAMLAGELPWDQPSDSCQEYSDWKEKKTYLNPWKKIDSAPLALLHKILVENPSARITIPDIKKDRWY
Outline: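 Ki values, or % inhibition where no Ki was obtained, come from a tight-binding fit that uses active enzyme concentration and the ATP Km. Rates were followed as NADH loss at 340 nm, with ADP production coupled via pyruvate kinase and lactate dehydrogenase. Reactions with ATP (150 uM) and Syntide 2 (125 uM) were started after the CHK1 kinase domain had stood with inhibitor for 15 min.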

HeLa cells = experiment: Histone H3 (Ser10) phosphorylation ELISA, abrogation of camptothecin-induced G2 arrest (CHK-1 cellular assay); type: cell-based; settings: Homo sapiens, HeLa, HeLa cells; camptothecin 8 hrs, then compound with nocodozole 16 hours; read-out: EC50
Outline: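 HeLa cells, or MiaPaCa-2 where marked, received camptothecin for 8 h, then compound with nocodazole for 16 h. Ser10-phosphorylated histone H3 in lysates was measured by ELISA with a biotinylated antibody, streptavidin-HRP and TMB. EC50 came from four-parameter sigmoid fits.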

[1] = Homo sapiens, Mia Paca-2 cells (entries marked *)
[2] = Homo sapiens, MIA PaCa-2, Mia Paca-2 cells (entries marked *)

EC50 (Mia Paca-2 cells; [1])	Ki (CHK1 (kinase domain))	EC50 (HeLa cells)	SMILES	further results
92.8 nM	7.74 nM		c1cn2c(-c3cncc(N[C@@H]4CCCNC4)n3)cnc2cn1 [Example 4, 6-Imidazo[1,2-a]pyrazin-3-yl-N-[(3R)-piperidin-3-yl]pyrazin-2-amine]	
	2.49 nM		Clc1ccc2ncc(-c3cncc(N[C@@H]4CCCNC4)n3)n2c1 [Example 5, 6-(6-Chloroimidazo[1,2-a]pyridin-3-yl)-N-[(3R)-piperidin-3-yl]pyrazin-2-amine]	EC50 (Mia Paca-2 cells; [2]): 18.3 nM
513 nM	12.8 nM		FC(F)(F)c1ccc2ncc(-c3cncc(N[C@@H]4CCNC4)n3)n2c1 [Example 13, N-[(3R)-pyrrolidin-3-yl]-6-[6-(trifluoromethyl)imidazo[1,2-a]pyridin-3-yl]pyrazin-2-amine]	
4210 nM	33.6 nM		C[C@@H]1CNC[C@@H]1Nc1cncc(-c2cnc3ccc(C(C)(C)O)cn23)n1 [Example 14, 2-[3-(6-{[(3R,4R)-4-methylpyrrolidin-3-yl]amino}pyrazin-2-yl)imidazo[1,2-a]pyridin-6-yl]propan-2-ol]	
	19.4 nM		Cc1ncc(-c2cnc3ccccn23)nc1N[C@@H]1CCCNC1 [Example 16, 6-(imidazo[1,2-a]pyridin-3-yl)-3-methyl-N-[(3R)-piperidin-3-yl]pyrazin-2-amine]	EC50 (Mia Paca-2 cells; [2]): 81.1 nM
59.5 nM	6.41 nM		COc1cc2c(cn1)ncn2-c1cncc(N[C@@H]2CCCNC2)n1 [Example 17, 6-(6-methoxy-1H-imidazo[4,5-c]pyridin-1-yl)-N-[(3R)-piperidin-3-yl]pyrazin-2-amine]	
19.1 nM	1.23 nM		COc1cc2ncn(-c3cncc(N[C@@H]4CCCNC4)n3)c2cn1 [Example 18, 6-(6-methoxy-3H-imidazo[4,5-c]pyridin-3-yl)-N-[(3R)-piperidin-3-yl]pyrazin-2-amine]	
	930 nM		N#Cc1ncc(N[C@@H]2CCCNC2)nc1-c1cnc2ccccn12 [Example 20, 3-(imidazo[1,2-a]pyridin-3-yl)-5-[(3R)-piperidin-3-ylamino]pyrazine-2-carbonitrile]	EC50 (Mia Paca-2 cells; [2]): 10000 nM
68.8 nM	6.02 nM		N#Cc1ccc2c(-c3cncc(N[C@@H]4CCCNC4)n3)cnn2c1 [Example 21, 3-{6-[(3R)-piperidin-3-ylamino]pyrazin-2-yl}pyrazolo[1,5-a]pyridine-6-carbonitrile]	
	6.38 nM		N#Cc1ccn2c(-c3cncc(N[C@@H]4CCCNC4)n3)cnc2c1 [Example 24, 3-{6-[(3R)-piperidin-3-ylamino]pyrazin-2-yl}imidazo[1,2-a]pyridine-7-carbonitrile]	EC50 (Mia Paca-2 cells; [2]): 178 nM
	5.51 nM		CO[C@H]1CCNC[C@@H]1Nc1cncc(-c2cnc3ccccn23)n1 [Example 29, 6-imidazo[1,2-a]pyridin-3-yl-N-[(3S,4S)-4-methoxypiperidin-3-yl]pyrazin-2-amine]	EC50 (Mia Paca-2 cells; Mia Paca-2 cells (entries marked *)): 86.8 nM
321 nM			N#Cc1ccn2c(-c3cncc(N[C@@H]4C[C@@H]5CN[C@H]4C5)n3)cnc2c1 [Example 162, 3-{6-[(1S,4R,6R)-2-azabicyclo[2.2.1]hept-6-ylamino]pyrazin-2-yl}imidazo[1,2-a]pyridine-7-carbonitrile]	
	3.58 nM	≥ 10000 nM	CC(C)OCCOc1ccn2c(-c3cncc(N[C@@H]4CCNC4)n3)cnc2c1 [Example 213, 6-{7-[2-(propan-2-yloxy)ethoxy]imidazo[1,2-a]pyridin-3-yl}-N-[(3R)-pyrrolidin-3-yl]pyrazin-2-amine]	
	6.78 nM	35.8 nM	CC(C)Oc1ccc2c(c1)ncn2-c1cncc(N[C@@H]2CCCNC2)n1 [Example 215, N-[(3R)-piperidin-3-yl]-6-[5-(propan-2-yloxy)-1H-benzimidazol-1-yl]pyrazin-2-amine]	
	15.5 nM	35.8 nM	COc1ccc2ncn(-c3cncc(N[C@@H]4CCNC4)n3)c2c1 [Example 216, 6-(6-methoxy-1H-benzimidazol-1-yl)-N-[(3R)-pyrrolidin-3-yl]pyrazin-2-amine]	
	5.12 nM	≥ 10000 nM	COc1ccc2c(c1)ncn2-c1cncc(N[C@@H]2CCNC2)n1 [Example 218, 6-(5-methoxy-1H-benzimidazol-1-yl)-N-[(3R)-pyrrolidin-3-yl]pyrazin-2-amine]	
		979 nM	CCOc1ccc2ncn(-c3cncc(N[C@@H]4CCNC4)n3)c2c1 [Example 219, 6-(6-ethoxy-1H-benzimidazol-1-yl)-N-[(3R)-pyrrolidin-3-yl]pyrazin-2-amine]	percent inhibition (where no Ki data is available) (CHK1 (kinase domain)): 48.4%^
	3.34 nM	370 nM	c1cc2c(cc1OCC1CC1)ncn2-c1cncc(N[C@@H]2CCNC2)n1 [Example 221, 6-[5-(cyclopropylmethoxy)-1H-benzimidazol-1-yl]-N-[(3R)-pyrrolidin-3-yl]pyrazin-2-amine]	
		≥ 10000 nM	CC(C)Oc1ccc2c(c1)ncn2-c1cncc(N[C@@H]2CCNC2)n1 [Example 222, 6-[5-(propan-2-yloxy)-1H-benzimidazol-1-yl]-N-[(3R)-pyrrolidin-3-yl]pyrazin-2-amine]	percent inhibition (where no Ki data is available) (CHK1 (kinase domain)): 42.5%^
	68.1 nM	329 nM	Cc1ncc(-c2cnc3ccccn23)nc1N[C@@H]1CCNC1 [Example 223, 6-(imidazo[1,2-a]pyridin-3-yl)-3-methyl-N-[(3R)-pyrrolidin-3-yl]pyrazin-2-amine]	
	2.39 nM	30.3 nM	COc1ccc2c(c1)ncn2-c1cncc(N[C@@H]2CCCNC2)n1 [Example 224, 6-(5-methoxy-1H-benzimidazol-1-yl)-N-[(3R)-piperidin-3-yl]pyrazin-2-amine]	
	35.3 nM	229 nM	COC[C@@H]1C[C@@H](Nc2cncc(-c3cnc4ccc(Cl)cn34)n2)CN1 [Example 246, 6-(6-chloroimidazo[1,2-a]pyridin-3-yl)-N-[(3R,5S)-5-(methoxymethyl)pyrrolidin-3-yl]pyrazin-2-amine]	
	45.3 nM	≥ 10000 nM	FC1(F)CCNC[C@H]1Nc1cncc(-c2cnc3ccccn23)n1 [Example 248, N-[(3R)-4,4-difluoropiperidin-3-yl]-6-(imidazo[1,2-a]pyridin-3-yl)pyrazin-2-amine]	
	4.5 nM	32.2 nM	FC1(F)CCNC[C@@H]1Nc1cncc(-c2cnc3ccccn23)n1 [Example 249, N-[(3S)-4,4-difluoropiperidin-3-yl]-6-(imidazo[1,2-a]pyridin-3-yl)pyrazin-2-amine]	
	56.4 nM	303 nM	C[C@H]1NCCC[C@H]1Nc1cncc(-c2cnc3cc(C#N)ccn23)n1 [Example 262, 3-(6-{[(2R,3R)-2-methylpiperidin-3-yl]amino}pyrazin-2-yl)imidazo[1,2-a]pyridine-7-carbonitrile]	
10000 nM			N#Cc1ncc(N[C@@H]2CCNC2)nc1-c1cnc2ccccn12 [Example 267, 3-(imidazo[1,2-a]pyridin-3-yl)-5-[(3R)-pyrrolidin-3-ylamino]pyrazine-2-carbonitrile]	
	334 nM	4080 nM	Cc1ncc(N[C@@H]2CCNC2)nc1-c1cnc2ccccn12 [Example 296, 6-(imidazo[1,2-a]pyridin-3-yl)-5-methyl-N-[(3R)-pyrrolidin-3-yl]pyrazin-2-amine]	

SMILES	EC50 (Mia Paca-2 cells; [1])	Ki (CHK1 (kinase domain))	EC50 (HeLa cells)	further results
COc1ccc2ncc(-c3cncc(N[C@@H]4CCCNC4)n3)n2c1 [Example 7, 6-(6-Methoxyimidazo[1,2-a]pyridin-3-yl)-N-[(3R)-piperidin-3-yl]pyrazin-2-amine]	16.7 nM	1.65 nM		
COc1ccn2c(-c3cncc(N[C@@H]4C5CCN(CC5)[C@@H]4C)n3)cnc2c1 [Example 19, (2R,3R)—N-[6-(7-methoxyimidazo[1,2-a]pyridin-3-yl)pyrazin-2-yl]-2-methyl-1-azabicyclo[2.2.2]octan-3-amine]	10000 nM	167 nM		
